Consider four molecules from the NIST ThermoML archive (doi:10.1021/je0340809).

The conditions of this series: 101.33 kPa, Liquid.

Numbers after ± are expanded uncertainties.

Regarding `O` [water], the speed of sound was 1498 ± 6.2 m/s (298.15 K); 1519 ± 6.3 m/s (308.15 K); 1535.1 ± 6.3 m/s (318.15 K); 1545 ± 6.3 m/s (328.15 K); 1551 ± 6.4 m/s (338.15 K).
For the molecule `O=C1CCCN1` [2-pyrrolidinone], the mass density runs as follows: (298.15 K) 1107.02 ± 2.4 kg/m3; (308.15 K) 1099.15 ± 2.3 kg/m3; (318.15 K) 1091.06 ± 2.2 kg/m3; (328.15 K) 1082.87 ± 2.1 kg/m3; (338.15 K) 1070.68 ± 1.9 kg/m3. Moreover, the speed of sound is, setting by setting: (298.15 K) 1633.2 ± 6.6 m/s; (308.15 K) 1603.1 ± 6.5 m/s; (328.15 K) 1549.7 ± 6.4 m/s; (338.15 K) 1520.1 ± 6.3 m/s. The viscosity by setting is: (298.15 K) 13.36 ± 0.48 mPa·s; (308.15 K) 8.844 ± 0.34 mPa·s; (318.15 K) 6.259 ± 0.26 mPa·s; (328.15 K) 4.677 ± 0.2 mPa·s; (338.15 K) 3.451 ± 0.15 mPa·s.
Turning to `C=CN1CCCC1=O` [N-vinylpyrrolidone], the mass density runs as follows: (298.15 K) 1042.04 ± 0.77 kg/m3; (308.15 K) 1033.19 ± 0.71 kg/m3; (318.15 K) 1024.38 ± 0.66 kg/m3; (328.15 K) 1015.58 ± 0.6 kg/m3; (338.15 K) 1006.77 ± 0.55 kg/m3. The speed of sound was 1530.1 ± 6.3 m/s (298.15 K); 1499.4 ± 6.2 m/s (308.15 K); 1467.6 ± 6.1 m/s (318.15 K); 1430.2 ± 6 m/s (328.15 K); 1403.3 ± 5.9 m/s (338.15 K). In addition, the viscosity (308.15 K) was determined as 2.942 ± 0.17 mPa·s, the viscosity (318.15 K) is 2.59 ± 0.15 mPa·s, the viscosity (328.15 K) is on record as 2.259 ± 0.13 mPa·s and the viscosity (338.15 K) is listed as 1.836 ± 0.11 mPa·s.
As for `CN1CCCC1=O` [N-methylpyrrolidone], the mass density is given as 1028.31 ± 0.68 kg/m3 (298.15 K); 1019.33 ± 0.63 kg/m3 (308.15 K); 1010.11 ± 0.57 kg/m3 (318.15 K); 1001.18 ± 0.51 kg/m3 (328.15 K); 992.234 ± 0.56 kg/m3 (338.15 K). Moreover, the speed of sound reads like this: (298.15 K) 1545.1 ± 13 m/s; (308.15 K) 1518.4 ± 12 m/s; (318.15 K) 1477.8 ± 12 m/s; (328.15 K) 1448.7 ± 12 m/s; (338.15 K) 1407.3 ± 12 m/s. The viscosity is, setting by setting: (298.15 K) 1.663 ± 0.078 mPa·s; (308.15 K) 1.365 ± 0.065 mPa·s; (318.15 K) 1.21 ± 0.058 mPa·s; (328.15 K) 1.117 ± 0.054 mPa·s; (338.15 K) 0.986 ± 0.049 mPa·s.

Usually speed of sound stands for how fast a sound wave travels through the sample. Broadly, the mass density is the mass of a sample divided by its volume. As a reminder, the viscosity is the resistance of a fluid to flow.
